# Data from patent US7829591B2, “Flavanone compound and uses thereof” (Pokka Corporation, priority 2003, dated 2010).
# Assays:
# Test in all cases: Antimicrobial activity test with Compounds 1 to 4
# Type in all cases: cell-based
# [1] = system: E. coli; details: for effect on growth and development of E. coli (in words): 5-50 ppm
# Description: (§1) That is, first of all, each of Compounds 1 to 4 was dissolved in 70% ethanol, and thereafter, standard agar media were prepared wherein the concentration of each of Compounds 1 to 4 was adjusted to be 0 ppm, 5 ppm, 10 ppm, 15 ppm, 20 ppm, or 50 ppm. Subsequently, these standard agar media were subjected to autoclave sterilization so as to prepare evaluation media, and each of the biological indicators was inoculated in each of these evaluation media. After the incubation of each of the bacteria, the number of the bacteria per a petri dish (CFU/petri dish) was determined.
# [2] = system: Staphylococcus aureus (Sta.); details: for effect on growth and development of Gram-positive bacteria, Sta. (in words): 5-50 ppm
# Description: as §1
# [3] = system: Bacillus cereus (B. ce); details: for effect on growth and development of spore forming bacteria, B. ce (in words): 5-50 ppm
# Description: as §1
# [4] = system: Salmonella enteritidis (S. en; NBRC3313); details: for effect on growth and development of S. en (in words): 5-50 ppm
# Description: as §1
# [5] = 5 ppm in standard agar medium, 0 ppm: >3000 (Table 3), 5 (Table 4)
# [6] = 5 ppm in standard agar medium, 0 ppm: 470 (Table 3), 202 (Table 4)
# [7] = 5 ppm in standard agar medium, 0 ppm: 13 (Table 3), 183 (Table 4)
# [8] = 5 ppm in standard agar medium, 0 ppm: >3000 (Table 3), 221 (Table 4)
SMILES,effect on growth and development of E. coli (in words) [1],"Number of Bacteria, E. coli [1, 5]","Number of Bacteria, E. coli ([1]; 10 ppm in standard agar medium)","Number of Bacteria, E. coli ([1]; 15 ppm in standard agar medium)","Number of Bacteria, E. coli ([1]; 20 ppm in standard agar medium)","Number of Bacteria, E. coli ([1]; 50 ppm in standard agar medium)","effect on growth and development of Gram-positive bacteria, Sta. (in words) [2]","Number of Bacteria, Sta. [2, 6]","Number of Bacteria, Sta. ([2]; 10 ppm in standard agar medium)","Number of Bacteria, Sta. ([2]; 15 ppm in standard agar medium)","Number of Bacteria, Sta. ([2]; 20 ppm in standard agar medium)","Number of Bacteria, Sta. ([2]; 50 ppm in standard agar medium)","effect on growth and development of spore forming bacteria, B. ce (in words) [3]","Number of Bacteria, B. ce [3, 7]","Number of Bacteria, B. ce ([3]; 10 ppm in standard agar medium)","Number of Bacteria, B. ce ([3]; 15 ppm in standard agar medium)","Number of Bacteria, B. ce ([3]; 20 ppm in standard agar medium)","Number of Bacteria, B. ce ([3]; 50 ppm in standard agar medium)",effect on growth and development of S. en (in words) [4],"Number of Bacteria, S. en [4, 8]",also measured
"CC(C)=CCC/C(C)=C/Cc1c([C@@H]2CC(=O)c3c(cc(O)c(CC=C(C)C)c3O)O2)ccc(O)c1O [Compound 4, 5,7,3′,4′-tetrahydroxy-6-(3′″,3′″-dimethylallyl)-2′-C-geranylflavanone]",high antimicrobial activity,6 CFU/petri dish,6 CFU/petri dish,9 CFU/petri dish,6 CFU/petri dish,0 CFU/petri dish,high antimicrobial activity,26 CFU/petri dish,7 CFU/petri dish,10 CFU/petri dish,1 CFU/petri dish,0 CFU/petri dish,high antimicrobial activity,16 CFU/petri dish,0 CFU/petri dish,0 CFU/petri dish,0 CFU/petri dish,0 CFU/petri dish,antimicrobial activity,249 CFU/petri dish,"Number of Bacteria, S. en ([4]; 10 ppm in standard agar medium): 199 CFU/petri dish; Number of Bacteria, S. en ([4]; 15 ppm in standard agar medium): 225 CFU/petri dish; Number of Bacteria, S. en ([4]; 20 ppm in standard agar medium): 132 CFU/petri dish; Number of Bacteria, S. en ([4]; 50 ppm in standard agar medium): 65 CFU/petri dish"
"CC(C)=CCC/C(C)=C/Cc1c(O)cc2c(c1O)C(=O)C[C@@H](c1ccc(O)c(O)c1)O2 [Compound 3, 5,7,3′,4′-tetrahydroxy-6-C-geranylflavanone]",high antimicrobial activity,3 CFU/petri dish,1 CFU/petri dish,0 CFU/petri dish,0 CFU/petri dish,0 CFU/petri dish,high antimicrobial activity,22 CFU/petri dish,0 CFU/petri dish,0 CFU/petri dish,0 CFU/petri dish,0 CFU/petri dish,high antimicrobial activity,4 CFU/petri dish,0 CFU/petri dish,0 CFU/petri dish,0 CFU/petri dish,0 CFU/petri dish,antimicrobial activity,296 CFU/petri dish,"Number of Bacteria, S. en ([4]; 10 ppm in standard agar medium): 207 CFU/petri dish; Number of Bacteria, S. en ([4]; 15 ppm in standard agar medium): 116 CFU/petri dish; Number of Bacteria, S. en ([4]; 20 ppm in standard agar medium): 143 CFU/petri dish; Number of Bacteria, S. en ([4]; 50 ppm in standard agar medium): 43 CFU/petri dish"
"CC(C)=CCC/C(C)=C/Cc1cc([C@@H]2CC(=O)c3c(O)cc(O)cc3O2)cc(O)c1O [Compound 2, 5,7,3′,4′-tetrahydroxy-5′-C-geranylflavanone]",little effect upon the growth and development,>3000 CFU/petri dish,>3000 CFU/petri dish,>3000 CFU/petri dish,>3000 CFU/petri dish,>3000 CFU/petri dish,more strongly the growth and development of each of Gram-5 positive bacteria and spore forming bacteria is inhibited,395 CFU/petri dish,108 CFU/petri dish,22 CFU/petri dish,0 CFU/petri dish,0 CFU/petri dish,more strongly the growth and development of each of Gram-5 positive bacteria and spore forming bacteria is inhibited,17 CFU/petri dish,0 CFU/petri dish,0 CFU/petri dish,0 CFU/petri dish,0 CFU/petri dish,little effect upon the growth and development,>3000 CFU/petri dish,"Number of Bacteria, S. en ([4]; 10 ppm in standard agar medium): >3000 CFU/petri dish; Number of Bacteria, S. en ([4]; 15 ppm in standard agar medium): >3000 CFU/petri dish; Number of Bacteria, S. en ([4]; 20 ppm in standard agar medium): >3000 CFU/petri dish; Number of Bacteria, S. en ([4]; 50 ppm in standard agar medium): >3000 CFU/petri dish"
"CC(C)=CCC/C(C)=C/Cc1c([C@@H]2CC(=O)c3c(O)cc(O)cc3O2)ccc(O)c1O [Compound 1, 5,7,3′,4′-tetrahydroxy-2′-C-geranylflavanone]",little effect upon the growth and development,>3000 CFU/petri dish,>3000 CFU/petri dish,>3000 CFU/petri dish,>3000 CFU/petri dish,>3000 CFU/petri dish,more strongly the growth and development of each of Gram-5 positive bacteria and spore forming bacteria is inhibited,344 CFU/petri dish,36 CFU/petri dish,0 CFU/petri dish,0 CFU/petri dish,0 CFU/petri dish,more strongly the growth and development of each of Gram-5 positive bacteria and spore forming bacteria is inhibited,12 CFU/petri dish,0 CFU/petri dish,0 CFU/petri dish,0 CFU/petri dish,0 CFU/petri dish,little effect upon the growth and development,>3000 CFU/petri dish,"Number of Bacteria, S. en ([4]; 10 ppm in standard agar medium): >3000 CFU/petri dish; Number of Bacteria, S. en ([4]; 15 ppm in standard agar medium): >3000 CFU/petri dish; Number of Bacteria, S. en ([4]; 20 ppm in standard agar medium): >3000 CFU/petri dish; Number of Bacteria, S. en ([4]; 50 ppm in standard agar medium): >3000 CFU/petri dish"
